The results in this text go back to US10596267B2, “Method and process for quantitative evaluation of pharmacokinetics, therapeutic effects and safety of delivery of drug compounds to the inner ear for treatment of auditory disease” (The Charles Stark Draper Laboratory, Inc., priority 2016, dated 2020).

For the series, the system named is guinea pig cochleae. As to the kind of experiment: Reciprocating inner ear delivery of DNQX by micropump via cochleostomy; CAP and DPOAE hearing measurements. The following applies: pump infusion via cochleostomy at the basal turn.

The structures appear in SMILES notation.

Experimental: Infusion began at t=0. A hearing threshold is the minimum sound pressure level (measured in dB SPL) required to generate a response. Data reported are threshold shifts, the change in threshold as compared to baseline. […] CAP amplitudes are also shown, with a legend that is on a log scale.
Reciprocating inner ear delivery and electronically-controlled dosing in a guinea pig model using a pump to infuse a drug via a cochleostomy (made at the basal turn) was evaluated. The drug reservoir was loaded with the glutamate receptor antagonist DNQX (which disrupts hair-cell-to-auditory-nerve synaptic transmission resulting in attenuation of compound action potentials (CAPs) generated in response to auditory stimuli). The molecular weight (232 Daltons) and physicochemical characteristics of DNQX make it a suitable model for evaluating the potential of other small molecule candidates for inner ear delivery. […] DPOAE responses from hair cells (which are not altered by DNQX) were monitored as a control for nonspecific effects.
In the experiments described herein, drug concentration was not measured directly, but was inferred by mapping the drug-mediated CAP inhibition along the length of the ST to calculate drug concentrations at a given location.

As to `O=[N+]([O-])c1cc2nc(O)c(O)nc2cc1[N+](=O)[O-]` [DNQX], the “DPOAE over time (control for nonspecific effects, mechanical damage or conductive hearing loss)” value is on record as “lack of alterations in DPOAE over time”. Moreover, the “compound action potential (CAP) after initiation of drug delivery” value (tone-pip-evoked CAP) was “reduction in CAP”.
